Like-named read-outs stand apart in the source and are kept apart here.
Assays:
TMV [1] = test: Anti-TMV activity on tobacco, protection mode; type: in vivo, tobacco mosaic virus; details: 100 μg/mL; for inhibition at 100 µg/mL: Tobacco mosaic virus, read-out: Anti-TMV activity inhibition, Protection effect
TMV [2] = test: Anti-TMV activity on tobacco, induction mode (systemic acquired resistance); type: in vivo, tobacco mosaic virus; details: 100 μg/mL
Alternaria solani = test: Fungicide activity, mycelial growth inhibition on PDA plate; type: cell-based; details: Alternaria solani, read-out: Fungicidal activity inhibition, AS
Botrytis cinerea = test: as above; type: cell-based; details: Botrytis cinerea, read-out: Fungicidal activity inhibition, BC
Pellicularia sasakii = test: as above; type: cell-based; details: 50 μg/mL, P. sasakii; read-out: Fungicidal activity inhibition, PS
Cercospora arachidicola = test: as above; type: cell-based; details: Mycosphaerella arachidis, read-out: Fungicidal activity inhibition, CA
TMV [3] = test: Anti-TMV activity on tobacco, curative mode; type: in vivo, tobacco mosaic virus; details: 100 μg/mL, tobacco; for inhibition at 100 µg/mL: Tobacco mosaic virus, read-out: Anti-TMV activity inhibition, Curative effect
[4] = system: Phytophthora infestans (Mont) de Bary; test: microbe, parasite or virus in culture; type: cell-based; details: Phytophthora infestans, read-out: Fungicidal activity inhibition, PI, 50 μg/mL, P. infestans (Mont.) de Bary
Physalospora piricola = test: Fungicide activity, mycelial growth inhibition on PDA plate; type: cell-based; details: read-out: Fungicidal activity inhibition, PP
Rhizoctonia cerealis = test: as above; type: cell-based; details: Ceratobasidium cereale, read-out: Fungicidal activity inhibition, RC
Sclerotinia sclerotiorum = test: as above; type: cell-based; details: Sclerotinia sclerotiorum, read-out: Fungicidal activity inhibition, SS
TMV [5] = test: Anti-TMV activity on tobacco, inactivation mode; type: in vivo, tobacco mosaic virus; details: Tobacco mosaic virus, 100 μg/mL, read-out: Anti-TMV activity inhibition, Inactivation effect

Compound: CSC(=O)c1cccc2nnsc12 [BTH, reference compound]
- Anti-TMV activity inhibition, Protection effect (TMV [1]): 78.10 ± 0.54%
- Anti-TMV activity inhibition, Induction effect (TMV [2]): 78.00 ± 1.34%

Compound: CO/C=C(/C(=O)OC)c1ccccc1CO/N=C(\C)c1snc(Cl)c1Cl [CL03-49]
- inhibition at 50 µg/mL (Alternaria solani; 50 μg/mL, A. solani): 42.9%
- inhibition at 50 µg/mL (Alternaria solani): > 30%
- inhibition at 50 µg/mL (Botrytis cinerea; 50 μg/mL, B. cinerea): 100%
- inhibition at 50 µg/mL (Pellicularia sasakii): 64.7%
- inhibition at 100 µg/mL (TMV [1]): 35.9 ± 0.63%
- inhibition at 50 µg/mL (Cercospora arachidicola; 50 μg/mL, C. arachidicola): 66.7%
- inhibition at 50 µg/mL (Cercospora arachidicola): > 30%
- melting point: 100 to 102 °C
- inhibition at 100 µg/mL (TMV [3]): > 30%
- inhibition at 50 µg/mL [4]: > 40%
- inhibition at 50 µg/mL (Physalospora piricola; 50 μg/mL, P. piricola): 78.3%
- inhibition at 50 µg/mL (Rhizoctonia cerealis; 50 μg/mL, R. cerealis): 100%
- inhibition at 50 µg/mL (Sclerotinia sclerotiorum; 50 μg/mL, S. sclerotiorum): 80%
- inhibition at 50 µg/mL (Sclerotinia sclerotiorum): > 40%

Compound: CO/C=C(/C(=O)OC)c1ccccc1CO/N=C/c1snc(Cl)c1Cl [CL03-50]
- inhibition at 50 µg/mL (Alternaria solani; 50 μg/mL, A. solani): 57.1%
- inhibition at 50 µg/mL (Alternaria solani): > 30%
- inhibition at 50 µg/mL (Botrytis cinerea; 50 μg/mL, B. cinerea): 100%
- inhibition at 50 µg/mL (Pellicularia sasakii): 64.7%
- inhibition at 100 µg/mL (TMV [1]): > 40%
- inhibition at 50 µg/mL (Cercospora arachidicola; 50 μg/mL, C. arachidicola): 66.7%
- inhibition at 50 µg/mL (Cercospora arachidicola): > 30%
- melting point: 61 to 63 °C
- Anti-TMV activity inhibition, Curative effect (TMV [3]): 48.32 ± 5.88%
- inhibition at 100 µg/mL (TMV [3]): > 30%
- inhibition at 50 µg/mL [4]: > 40%
- inhibition at 50 µg/mL (Physalospora piricola; 50 μg/mL, P. piricola): 78.3%
- inhibition at 50 µg/mL (Rhizoctonia cerealis; 50 μg/mL, R. cerealis): 100%
- inhibition at 50 µg/mL (Sclerotinia sclerotiorum; 50 μg/mL, S. sclerotiorum): 53.3%
- inhibition at 50 µg/mL (Sclerotinia sclerotiorum): > 40%

Compound: CO/C=C(/C(=O)OC)c1ccccc1CO/N=C(\N)c1snc(Cl)c1Cl [CL04-03]
- inhibition at 50 µg/mL (Alternaria solani; 50 μg/mL, A. solani): 57.1%
- inhibition at 50 µg/mL (Alternaria solani): > 30%
- inhibition at 50 µg/mL (Botrytis cinerea; 50 μg/mL, B. cinerea): 100%
- inhibition at 50 µg/mL (Pellicularia sasakii): 58.8%
- inhibition at 100 µg/mL (TMV [1]): 35.1 ± 0.39%
- inhibition at 50 µg/mL (Cercospora arachidicola; 50 μg/mL, C. arachidicola): 100%
- melting point: 105 to 107 °C
- inhibition at 100 µg/mL (TMV [3]): > 30%
- inhibition at 50 µg/mL [4]: > 40%
- inhibition at 50 µg/mL (Physalospora piricola; 50 μg/mL, P. piricola): 87%
- inhibition at 50 µg/mL (Rhizoctonia cerealis; 50 μg/mL, R. cerealis): 100%
- inhibition at 50 µg/mL (Sclerotinia sclerotiorum; 50 μg/mL, S. sclerotiorum): 100%

Compound: CO/C=C(/C(=O)OC)c1ccccc1CO/N=C(\C)CC(O)c1snc(Cl)c1Cl (stereo not shown) [CL04-04-A]
- inhibition at 50 µg/mL (Alternaria solani; 50 μg/mL, A. solani): 85.7%
- inhibition at 50 µg/mL (Botrytis cinerea; 50 μg/mL, B. cinerea): 100%
- inhibition at 50 µg/mL (Pellicularia sasakii): 52.9%
- inhibition at 50 µg/mL (Cercospora arachidicola; 50 μg/mL, C. arachidicola): 75%
- melting point: 36 to 38 °C
- inhibition at 100 µg/mL (TMV [3]): 19.1 ± 2.13%
- inhibition at 50 µg/mL [4]: > 40%
- inhibition at 50 µg/mL (Physalospora piricola; 50 μg/mL, P. piricola): 73.9%
- inhibition at 50 µg/mL (Rhizoctonia cerealis; 50 μg/mL, R. cerealis): 100%
- inhibition at 50 µg/mL (Sclerotinia sclerotiorum; 50 μg/mL, S. sclerotiorum): 90%

Compound: CO/C=C(/C(=O)OC)c1ccccc1CO/N=C(\C)CC(=O)c1snc(Cl)c1Cl [CL04-04-B]
- inhibition at 50 µg/mL (Alternaria solani; 50 μg/mL, A. solani): 50%
- inhibition at 50 µg/mL (Alternaria solani): > 30%
- inhibition at 50 µg/mL (Botrytis cinerea; 50 μg/mL, B. cinerea): 58.3%
- inhibition at 50 µg/mL (Botrytis cinerea): > 45%
- inhibition at 50 µg/mL (Pellicularia sasakii): 64.7%
- inhibition at 100 µg/mL (TMV [1]): > 40%
- inhibition at 50 µg/mL (Cercospora arachidicola; 50 μg/mL, C. arachidicola): 75%
- melting point: 103 to 105 °C
- inhibition at 100 µg/mL (TMV [3]): 19.1 ± 2%
- inhibition at 50 µg/mL [4]: > 40%
- inhibition at 50 µg/mL (Physalospora piricola; 50 μg/mL, P. piricola): 60.9%
- inhibition at 50 µg/mL (Rhizoctonia cerealis; 50 μg/mL, R. cerealis): 92.6%
- inhibition at 50 µg/mL (Rhizoctonia cerealis): > 50%
- inhibition at 50 µg/mL (Sclerotinia sclerotiorum; 50 μg/mL, S. sclerotiorum): 76.7%
- inhibition at 50 µg/mL (Sclerotinia sclerotiorum): > 40%

Compound: CO/C=C(/C(=O)OC)c1ccccc1CO/N=C(C)/C=C/c1snc(Cl)c1Cl [CL04-06]
- inhibition at 50 µg/mL (Alternaria solani; 50 μg/mL, A. solani): 57.1%
- inhibition at 50 µg/mL (Alternaria solani): > 30%
- inhibition at 50 µg/mL (Botrytis cinerea; 50 μg/mL, B. cinerea): 100%
- inhibition at 50 µg/mL (Pellicularia sasakii): 70.6%
- inhibition at 100 µg/mL (TMV [1]): > 40%
- inhibition at 50 µg/mL (Cercospora arachidicola; 50 μg/mL, C. arachidicola): 50%
- inhibition at 50 µg/mL (Cercospora arachidicola): > 30%
- inhibition at 100 µg/mL (TMV [5]): 22.2 ± 5.9%
- melting point: 101 to 103 °C
- inhibition at 100 µg/mL (TMV [3]): 22.4 ± 6.85%
- inhibition at 50 µg/mL (Physalospora piricola): 73.9%
- inhibition at 50 µg/mL (Rhizoctonia cerealis; 50 μg/mL, R. cerealis): 100%
- inhibition at 50 µg/mL (Sclerotinia sclerotiorum; 50 μg/mL, S. sclerotiorum): 100%

Compound: CO/N=C(/C(=O)OC)c1ccccc1CO/N=C/c1snc(Cl)c1Cl [CL04-15B]
- inhibition at 50 µg/mL (Alternaria solani; 50 μg/mL, A. solani): 100%
- inhibition at 50 µg/mL (Botrytis cinerea; 50 μg/mL, B. cinerea): 100%
- inhibition at 50 µg/mL (Pellicularia sasakii): 69.2%
- inhibition at 100 µg/mL (TMV [1]): 14.7 ± 2.73%
- inhibition at 50 µg/mL (Cercospora arachidicola; 50 μg/mL, C. arachidicola): 91.7%
- melting point: 88 to 90 °C
- inhibition at 100 µg/mL (TMV [3]): 27 ± 4.13%
- inhibition at 50 µg/mL (Physalospora piricola; 50 μg/mL, P. piricola): 62.1%
- inhibition at 50 µg/mL (Rhizoctonia cerealis; 50 μg/mL, R. cerealis): 98.2%
- inhibition at 50 µg/mL (Sclerotinia sclerotiorum; 50 μg/mL, S. sclerotiorum): 90%

Compound: CO/N=C(/C(=O)OC)c1ccccc1CO/N=C(\N)c1snc(Cl)c1Cl [CL04-15C]
- inhibition at 50 µg/mL (Alternaria solani; 50 μg/mL, A. solani): 52.9%
- inhibition at 50 µg/mL (Alternaria solani): > 30%
- inhibition at 50 µg/mL (Botrytis cinerea; 50 μg/mL, B. cinerea): 100%
- inhibition at 50 µg/mL (Pellicularia sasakii): 76.9%
- inhibition at 100 µg/mL (TMV [1]): 25.1 ± 4.33%
- inhibition at 50 µg/mL (Cercospora arachidicola; 50 μg/mL, C. arachidicola): 75%
- melting point: 104 to 106 °C
- inhibition at 100 µg/mL (TMV [3]): 1.52 ± 0.62%
- inhibition at 50 µg/mL (Physalospora piricola; 50 μg/mL, P. piricola): 71.2%
- inhibition at 50 µg/mL (Rhizoctonia cerealis; 50 μg/mL, R. cerealis): 89.1%
- inhibition at 50 µg/mL (Rhizoctonia cerealis): > 50%
- inhibition at 50 µg/mL (Sclerotinia sclerotiorum; 50 μg/mL, S. sclerotiorum): 98%

From US10906880B2, “Kind of isothiazole oxime ether-containing strobilurin derivatives and its preparation methods and application” (priority 2016, dated 2021)
